Test results from PMC7560342, “In Vitro and In Vivo Evaluation of the Toxic Effects of Dodecylguanidine Hydrochloride” (Toxics, 2020).
Values after ≈ are worked out from the molar mass of the structure shown.

Experiments:
A549 cells = experiment: cells; assay type: cell-based, Human; settings: 24 h exposure, WST assay; for IC50: Homo sapiens, read-out: IC50 (half inhibitory concentration by cell viability assay)
Method: Human adenocarcinomic alveolar epithelial (A549) cells were obtained from the Korea Cell Line Bank (Seoul, Korea). Cells were grown in RPMI 1640 medium (Thermo Fisher Scientific, Waltham, MA, USA), containing 10% heat-inactivated fetal bovine serum (Thermo Fisher Scientific, Waltham, MA, USA) and 1% penicillin-streptomycin (Thermo Fisher Scientific, Waltham, MA, USA) under standard cell culture conditions (37 °C, 5% CO2, and 90% humidity).
A549 cells (1 × 10^4 cells) were incubated in 96-well plates overnight, and various concentrations (1, 10, 100, 1000, and 5000 μg/mL) of the eight selected chemicals were added to the cell culture medium. After 24 h of incubation, cell morphology was observed by optical microscopy, and cell viability was evaluated using EZ-Cytox kit (DoGenBio, Seoul, Korea) by quantifying purple formazan crystals. The membrane integrity was examined using an EZ-lactate dehydrogenase (LDH) kit (DoGenBio, Seoul, Korea) to measure the LDH level released from the cytosol into the culture medium. Absorbance was measured using a microplate reader (Tecan, Salzburg, Austria) at a wavelength of 450 nm.

rat [1] = system: rat; set-up: method as in earlier work; settings: 1 h; cited from earlier work
rabbit = system: rabbit; set-up: method as in earlier work; settings: cited from earlier work
rat [2] = system: rat; set-up: method as in earlier work; settings: cited from earlier work

Q: With `N=C(N)N.O=[N+]([O-])O` [GN, Guanidine mononitrate] as the compound, how does the “IC50 (half inhibitory concentration by cell viability assay)” value (A549 cells) read?
A: 3417 µg/mL

Q: Which “IC50 (half inhibitory concentration by cell viability assay)” value (A549 cells) does the source give for `N=C(N)N.NS(=O)(=O)O` [GS, Guanidine sulfamate] here?
A: 2722 µg/mL

Q: Which “IC50 (half inhibitory concentration by cell viability assay)” value (A549 cells) does the source give for `Cl.N=C(N)N` [GH, Guanidine monohydrochloride] here?
A: 2373 µg/mL

Q: For `N=C(N)N.N=C(N)N.O=C(O)O` [GC, Guanidine carbonate], which “IC50 (half inhibitory concentration by cell viability assay)” value (A549 cells) is on record?
A: 1822 µg/mL

Q: With `N#CNC(=N)N` [CG, Cyanoguanidine] as the compound, how does the IC50 (A549 cells) read?
A: > 5000 µg/mL

Q: Which “Inhalation toxicity LC50” value (rat [1]) does the source give for `CCCCCCCCCCCCNC(=N)N` [dodine, dodecylguanidine acetate] here?
A: 1.05 mg/L

Q: What about the “Dermal toxicity LD50” value (rabbit) of the same compound?
A: > 2000 mg/kg

Q: What about the “Acute oral toxicity LD50” value (rat [2]) of the same compound?
A: 1931 mg/kg

Q: For `CN(C)C(=N)N(C)C` [TMG, 1,1,3,3-Tetramethylguanidine], which IC50 (A549 cells) is on record?
A: 1090 µg/mL (≈ 9.47 mM)
